Here are results for 17 substances from US8735364B2, “Antisense modulation of apolipoprotein B expression” (Genzyme Corporation, priority 2001, dated 2014).

Oligonucleotides are written 5' to 3', each unit as a sugar letter and its base; * is a phosphorothioate linkage, no mark a phosphodiester; rarer units and linkages stand in square brackets, end groups in braces. Plain capitals give the bases only. e = 2'-O-(2-methoxyethyl) (MOE); [5mC] = 5-methylcytosine; d = 2'-deoxy (DNA)

This series relates to mouse apolipoprotein B mRNA. The series can be described thus: Inhibition of mouse apolipoprotein B mRNA levels in primary hepatocytes, quantitative real-time PCR. The following applies: for %INHIB of mouse apolipoprotein B mRNA levels: averages from two experiments. Also noted: %INHIB of mouse apolipoprotein B mRNA levels: concentration or dose not given beside the values. In kind it is cell-based. The procedure:
Primary mouse hepatocytes were prepared from CD-1 mice purchased from Charles River Labs (Wilmington, Mass.) and were routinely cultured in Hepatoyte Attachment Media (Gibco) supplemented with 10% Fetal Bovine Serum (Gibco/Life Technologies, Gaithersburg, Md.), 250 nM dexamethasone (Sigma), and 10 nM bovine insulin (Sigma). Cells were seeded into 96-well plates (Falcon-Primaria #3872) at a density of 10000 cells/well for use in RT-PCR analysis.
When cells reached 80% confluency, they were treated with oligonucleotide. For cells grown in 96-well plates, wells were washed once with 200 μL OPTI-MEM™-1 reduced-serum medium (Gibco BRL) and then treated with 130 μL of OPTI-MEM™-1 containing 3.75 μg/mL LIPOFECTIN™ (Gibco BRL) and the desired concentration of oligonucleotide. After 4-7 hours of treatment, the medium was replaced with fresh medium. Cells were harvested 16-24 hours after oligonucleotide treatment.
Quantitation of apolipoprotein B mRNA levels was determined by real-time quantitative PCR using the ABI PRISM™ 7700 Sequence Detection System (PE-Applied Biosystems, Foster City, Calif.) according to manufacturer's instructions. This is a closed-tube, non-gel-based, fluorescence detection system which allows high-throughput quantitation of polymerase chain reaction (PCR) products in real-time. As opposed to standard PCR, in which amplification products are quantitated after the PCR is completed, products in real-time quantitative PCR are quantitated as they accumulate. This is accomplished by including in the PCR reaction an oligonucleotide probe that anneals specifically between the forward and reverse PCR primers, and contains two fluorescent dyes. A reporter dye (e.g., JOE, FAM, or VIC, obtained from either Operon Technologies Inc., Alameda, Calif. or PE-Applied Biosystems, Foster City, Calif.) is attached to the 5′ end of the probe and a quencher dye (e.g., TAMRA, obtained from either Operon Technologies Inc., Alameda, Calif. or PE-Applied Biosystems, Foster City, Calif.) is attached to the 3′ end of the probe. When the probe and dyes are intact, reporter dye emission is quenched by the proximity of the 3′ quencher dye. During amplification, annealing of the probe to the target sequence creates a substrate that can be cleaved by the 5′-exonuclease activity of Taq polymerase. […] With each cycle, additional reporter dye molecules are cleaved from their respective probes, and the fluorescence intensity is monitored at regular intervals by laser optics built into the ABI PRISM™ 7700 Sequence Detection System. In each assay, a series of parallel reactions containing serial dilutions of mRNA from untreated control samples generates a standard curve that is used to quantitate the percent inhibition after antisense oligonucleotide treatment of test samples.
PCR reagents were obtained from PE-Applied Biosystems, Foster City, Calif. RT-PCR reactions were carried out by adding 25 μL PCR cocktail (1× TAQMAN™ buffer A, 5.5 mM MgCl2, 300 μM each of DATP, dCTP and dGTP, 600 μM of dUTP, 100 nM each of forward primer, reverse primer, and probe, 20 Units RNAse inhibitor, 1.25 Units AMPLITAQ GOLD™, and 12.5 Units MuLV reverse transcriptase) to 96 well plates containing 25 μL total RNA solution. The RT reaction was carried out by incubation for 30 minutes at 48° C. Following a 10 minute incubation at 95° C. to activate the AMPLITAQ GOLD™, 40 cycles of a two-step PCR protocol were carried out: 95° C. for 15 seconds (denaturation) followed by 60° C. for 1.5 minutes (annealing/extension).
Gene target quantities obtained by real time RT-PCR are normalized using either the expression level of GAPDH, a gene whose expression is constant, or by quantifying total RNA using RiboGreen™ (Molecular Probes, Inc. Eugene, Oreg.). GAPDH expression is quantified by real time RT-PCR, by being run simultaneously with the target, multiplexing, or separately. Total RNA is quantified using RiboGreen™ RNA quantification reagent from Molecular Probes. […]
For orientation: Real-time PCR tracks product formation cycle by cycle.

Take “147475 (antisense eA*eT*eT*eG*eT*dA*dT*dG*dT*dG*dA*dG*dA*dG*dG*eT*eG*eA*eG*eG) [compound 147475]”: the “%INHIB of mouse apolipoprotein B mRNA levels” value (“%INHIB” below) was 79%.

As to “147476 (antisense eG*eA*eG*eG*eA*dG*dA*dT*dT*dG*dG*dA*dT*d[5mC]*dT*eT*eA*eA*eG*eG) [compound 147476]”, the “%INHIB” value was 13%.

Consider “147478 (antisense eT*e[5mC]*e[5mC]*eA*eG*dG*dA*dA*dT*dT*dG*dA*dG*d[5mC]*dT*eT*eG*eT*eG*e[5mC]) [compound 147478]”, for which the “%INHIB” value is 78%.

Take “147480 (antisense eT*e[5mC]*eT*e[5mC]*eA*d[5mC]*d[5mC]*d[5mC]*dT*d[5mC]*dA*dT*dG*d[5mC]*dT*e[5mC]*e[5mC]*eA*eT*eT) [compound 147480]”: the “%INHIB” value amounted to 54%.

On to “147481 (antisense eT*eG*eA*e[5mC]*eT*dG*dT*d[5mC]*dA*dA*dG*dG*dG*dT*dG*eA*eG*e[5mC]*eT*eG) [compound 147481]”, for which the “%INHIB” value was 24%.

As for “147482 (antisense eG*eT*e[5mC]*e[5mC]*eA*dG*d[5mC]*d[5mC]*dT*dA*dG*dG*dA*dA*d[5mC]*eA*e[5mC]*eT*e[5mC]*eA) [compound 147482]”, the “%INHIB” value was determined as 59%.

For the substance “147483 (antisense eA*eT*eG*eT*e[5mC]*dA*dA*dT*dG*d[5mC]*d[5mC]*dA*d[5mC]*dA*dT*eG*eT*e[5mC]*e[5mC]*eA) [compound 147483]”, the “Percent Inhibition of mouse apolipoprotein B mRNA levels” value (shortened to “Percent Inhibition”) (50 nM) came out at 56%, the “Percent Inhibition” value (150 nM) was determined as 88% and the “Percent Inhibition” value (300 nM) is 89%.

In the case of “147484 (antisense eT*eT*e[5mC]*eA*eT*d[5mC]*d[5mC]*dG*dA*dG*dA*dA*dG*dT*dT*eG*eG*eG*eA*e[5mC]) [compound 147484]”, the “%INHIB” value is given as 49%.

With “147485 (antisense eA*eT*eT*eT*eG*dG*dG*dA*d[5mC]*dG*dA*dA*dT*dG*dT*eA*eT*eG*e[5mC]*e[5mC]) [compound 147485]”, the “%INHIB” value is reported as 64%.

Turning to “147487 (antisense eT*eT*e[5mC]*e[5mC]*e[5mC]*dA*dG*dT*d[5mC]*dA*dG*d[5mC]*dT*dT*dT*eA*eG*eT*eG*eG) [compound 147487]”, the “%INHIB” value is on record as 73%.

As for “147488 (antisense eA*eG*e[5mC]*eT*eT*dG*d[5mC]*dT*dT*dG*dT*dT*dG*dG*dG*e[5mC]*eA*e[5mC]*eG*eG) [compound 147488]”, the “%INHIB” value is on record as 72%.

With “147489 (antisense e[5mC]*e[5mC]*eT*eA*eT*dA*d[5mC]*dT*dG*dG*d[5mC]*dT*dT*d[5mC]*dT*eA*eT*eG*eT*eT) [compound 147489]”, the “%INHIB” value was found to be 5%.

Turning to “147493 (antisense eG*e[5mC]*eT*eT*e[5mC]*dA*dT*dT*dA*dT*dA*dG*dG*dA*dG*eG*eT*eG*eG*eT) [compound 147493]”, the “%INHIB” value stood at 41%.

In the case of “147494 (antisense eA*e[5mC]*eA*eA*e[5mC]*dT*dG*dG*dG*dA*dT*dA*dG*dT*dG*eT*eA*eG*e[5mC]*e[5mC]) [compound 147494]”, the “%INHIB” value came out at 84%.

“147495 (antisense eG*eT*eT*eA*eG*dG*dA*d[5mC]*d[5mC]*dA*dG*dG*dG*dA*dT*eT*eG*eT*eG*eA) [compound 147495]”: the “%INHIB” value stood at 0%.

On to “147496 (antisense eA*e[5mC]*e[5mC]*eA*eT*dG*dG*dA*dA*dA*dA*d[5mC]*dT*dG*dG*e[5mC]*eA*eA*e[5mC]*eT) [compound 147496]”, for which the “%INHIB” value is listed as 19%.

As for “147498 (antisense eT*eG*eG*eG*e[5mC]*dA*dA*d[5mC]*dG*dA*dT*dA*dT*d[5mC]*dT*eG*eA*eT*eT*eG) [compound 147498]”, the “%INHIB” value was 0%.
